The values below come from patent US20050203011A1, “Mitigating symptoms and behaviors of substance abuse by modulating GDNF or BDNF pathway activity” (The Regents of the University of California, priority 2003, published 2005).

One assay has as its system Male Long Evans rats. The assay can be described thus: Ethanol and sucrose self-administration in the two-bottle preference test. The assay is classed as in vivo, rat. Particulars: ibogaine i.p. From the text: Male Long Evans rats were allowed continuous access to two bottles, one containing 10% ethanol (10 E) in tap water and the other containing tap water. […] Each subject received each dose, with one injection per week. Next, subjects were exposed to 2 bottles, one containing 10% sucrose (10 S) in tap water and the other containing tap water.

The next assay relates to Trk. The assay can be described thus: Trk phosphorylation in SHSY5Y cells. The format is cell-based, human. Particulars: 10 μM ibogaine 3 hours. How it is done:
(§1) Expression of GDNF and control Actin were analyzed by RT-PCR (n=4). […] GDNF in the media was detected by an ELISA assay. Histogram depicts the mean±SD of GDNF secretion in 3 experiments. […] Ret was immunoprecipitated with anti-Ret antibodies followed by Western blot analysis with anti GFRα1 antibodies. The levels of GFRα1 in the homogenates were determined by Western blot analysis (n=3). […] Ret was immunoprecipitated followed by Western blot analysis with anti-phospho tyrosine or anti-Ret antibodies (n=3). […] Trk phosphorylation was analyzed by Western blot analysis with anti-phospho-Trk antibodies. The levels of TrkB were also determined by Western blot analysis (n=3). Panel F: Cells were pre-incubated with 0.3 unit/ml PI-PLC for 1 h (lanes 3 and 4). […] Ret phosphorylation was determined as described above (n=4). […] Treatment with 50 ng/ml GDNF was used as a positive control (lane 5). The cells were lysed and Ret phosphorylation was analyzed as described above (n=3).

Assay [1] has as its system rats. The assay can be described thus: VTA microinjection of ibogaine, ethanol operant self-administration. The assay is classed as in vivo, rat. The method, then:
After ethanol self-administration was established as described above, subjects attained a mean daily intake of ethanol of 0.62±0.07 g/kg. Bilateral guide cannula (26 gauge, Plastics One) were implanted into the VTA (5.6 mm posterior to bregma, 1.0 mm mediolateral, 8.0 mm ventral to the skull surface). After 7 to 10 days recovery, sham injections were conducted prior to ethanol self-administration sessions to habituate subjects to the microinjection procedure. […] Injection cannulae were left in place for an additional 2 minutes to allow for diffusion of the drug. Three, 24 and 48 hours post injection, rats were placed into the self-administration chambers for a 1-hour self-administration session.

Assay [2] deals with tyrosine hydroxylase (TH). As to the kind of experiment: Tyrosine hydroxylase (TH) protein levels in SHSY5Y cells. The assay is classed as cell-based, human. The following applies: 100 mM ethanol 24 hours, GDNF 100 ng/ml or ibogaine 10 μM added for last 12 hours. The method, then:
Panel A: SHSY5Y cells were treated with different concentrations (0, 10, 25, and 100 mM) of ethanol for 24 hours. TH protein levels and control Actin levels were determined by Western blot analysis. Histogram depicts the mean ratio (TI/actin)±SD of 3 experiments. Panel B: Cells were treated with media (control), 100 ng/ml of GDNF for 12 h (lane 1), 100 mM ethanol for 24 hours (lane 2), or 100 mM ethanol for 24 hours to which 100 ng/ml GDNF was added for the last 12 hours (lane 3). The cells were lysed for Western blot analysis. Histogram depicts the mean ratio (TH/actin)±SD of 3 experiments. […] Histogram depicts the mean ratio (TH/actin)±SD of 3 experiments.

A further assay deals with ERK1/2. As to the kind of experiment: ERK1/2 phosphorylation in SHSY5Y cells. The following applies: 10 μM ibogaine. The assay is classed as cell-based, human. How it is done: ERK2 and pERK1/2 were detected by Western blot analysis with anti-ERK2 and pERK1/2 antibodies respectively. Line-graph depicts the mean ratio (pERK2/ERK2)±SD of 3 experiments. […] Panel C: Cells were pre-incubated with 0.3 unit/ml PI-PLC for 1 h (lane 3).

Assay [3] deals with rats. As to the kind of experiment: Intra-VTA minipump infusion of anti-GDNF neutralizing antibodies, ethanol self-administration after ibogaine. Particulars: 3 hours after ibogaine 40 mg/kg i.p., control subjects (intra-VTA mouse IgG). The format is in vivo, rat.
Protocol: An osmotic minipump (Alzet) was then connected to each of the two guide cannulae and was implanted subcutaneously for continuous infusion of either anti GDNF neutralizing antibodies (600 ng/12 N^ol/side/day) or mouse IgG (600 ng/12 μl/side/day).
Assay [4] concerns Ret association with GFRα1. The assay can be described thus: Ret association with GFRα1 in SHSY5Y cells (immunoprecipitation, Western blot). The assay is classed as cell-based, human. Particulars: 3 hours. How it is done: as §1
(§2) Cells were collected and lysed in RIPA buffer (50 mM Tris-Cl, pH 7.6, 150 mM NaCl, 1 % NP40, 0.1% SDS, 0.5% sodium deoxycholate, 2 mM EDTA, protease inhibitor cocktail and 10 mM sodium orthovanadate). Homogenates were incubated with 5 N^og anti-Ret antibody in TBS-T buffer (20 mM Tris-Cl, pH7.6, 137 mM NaCl and 1% NP-40) overnight at 4° C., followed by 2 hours incubation with Protein G agarose. […]
(In general: Immunoblotting shows a protein as a band on a membrane.)

In another assay the test system is GDNF. The assay can be described thus: GDNF expression in SHSY5Y cells (RT-PCR). The assay is classed as cell-based, human. How it is done: SHSY5Y human neuroblastoma cells were grown in Dulbecco's modified Eagle's medium (DMEM) containing 10% fetal bovine serum (FBS) plus 100 units/ml penicillin and 100 μg/ml streptomycin. Prior to experiments, the medium was replaced with DMEM containing 1% FBS.
Total RNA was isolated using Trizol reagent and reverse transcribed using Reverse Transcription System kit with the oligo (dT)15 primer at 42ûC for 30 minutes. GDNF, Actin or GPDH expressions were analyzed by RT-PCR. The GDNF primers were based on the coding frame of the human GDNF gene: upstream, 5′-TGCCAGAGGATTATCCTGATCAGTTCG ATG3′ (SEQ ID NO: 1); and downstream, 5′-TTGTCGTACGTTGTCTCAGCTGCATCGCAA-3′ (SEQ ID NO:2). The Actin primers were based on the human Actin gene: upstream, 5′-TCATGAAGTGTGACGTTGACATC-3′ (SEQ ID NO:3); and downstream, 5′-AGAAGCATTTGCGGTGGACGATG-3′ (SEQ ID NO:4). The GPDH primers were based on the rat GPDH gene: upstream, 5′-TGAAGGTCGGTGTCAACGGATTTGGC-3′ (SEQ ID NO:5); and downstream, 5′-CATGTAGGCCATGAGGTCCACCAC-3′ (SEQ ID NO:6). […]
After completion of PCR, 10 μl of each product was separated by 1.8% agarose gel in Tris/acetic acid/EDTA buffer with 0.25N^og/ml ethidium bromide, photographed by Eagle Eye II (Stratagene), and quantified by NIH Image 1.61.

A further assay has as its system Ret. As to the kind of experiment: Ret phosphorylation in SHSY5Y cells. The format is cell-based, human. Particulars: dose- and time-dependent. The method, then: as §1, §2

In the case of 12-methoxyibogamine [ibogaine], the ethanol intake result in the assay with Male Long Evans rats (continuous access to ethanol in home cage, measured 24 hours after injection) is listed as “reduced”. The preference for ethanol entry in the assay with Male Long Evans rats (continuous access, 24 hours after injection) is reported as “reduced”. For the same substance, the “phosphorylation state of Trk” value with Trk is “no change”. In the assay with rats [1] (intra-VTA 0.1 μM, any tested time point), the “lever responding for ethanol” value is “did not differ from responding following vehicle”. For the same substance, in the assay with rats [1] (intra-VTA 10 μM), the “lever presses for ethanol, return to baseline” value is recorded as “did not return to baseline levels within 48 hours”. For the same substance, in the assay on rats [1] (intra-VTA 10 μM, 3, 24 and 48 hours, vs vehicle), the “lever responding for ethanol” value was “significantly reduced responding at all time points”. Also, the ethanol-paired lever pressing entry in the assay with rats [1] (intra-VTA 0.1, 1.0 and 10.0 μM/0.5 μl, 3 hours before session, dose-dependent) was “significantly decreased”. Moreover, the “ethanol-induced increase in TH immunoreactivity” value in [2] is “inhibited”. Also, in the assay on ERK1/2, the “duration of ERK1/2 activation” value was “up to 6 hours” and the “phosphorylation of ERK1/2” value is recorded as “induced”. Moreover, the “decrease in responding for ethanol” value in the assay on rats [3] is given as 79.1%. Further, in assay [4], the GFRα1 protein levels entry was “not due to increased GFRα1 protein levels” and the “Ret association with GFRα1” value is “increased”. The “duration of increase in GDNF expression” value in the assay with GDNF was “up to 12 hours”. The GDNF expression result with GDNF (10 μM, dose- and time-dependent) is on record as “increase”. In addition, the Ret phosphorylation result in the assay with Ret was “induced”.
